Assay results reported in PMC12592502, “Unraveling the mechanisms behind the enhanced efficacy of β-lactam-based sideromycins” (Communications Biology, 2025).
≈ marks a conversion by molar mass, not a printed value. Where “and” joins values, the source holds several entries; their conditions need not be identical. Equal values may be shown once. Read-outs that look alike come from different tables or passages of the source. Marks after values point to notes of the source that are not given here.

Assays:
[1] = biological target: T1, purified PBP3 of P. aeruginosa (PaPBP3) (Pseudomonas aeruginosa, UniProt G3XD46); assay: biochemical; format: binding
T1 construct: (residues 53 to 579) from P. aeruginosa ATCC 27853 (PaPBP3); His6 (C); made in house; host or cells: E. coli BL21 DE3
Procedure: The PBP binding assay was done as described previously[36],[56],[57]. For each antibiotic concentration tested, a quantity of 25 to 40 μg of membrane preparation was used as the source of PBPs, depending on the species. For the purified PaPBP3, 150 ng was used in the assay. First, increasing concentrations of the test antibiotic was added to the membrane or purified PaPBP3 preparations and incubated for 10 min at 30 °C. The reporter molecule Bocillin FL was then added at 12.5 μM for the membrane PBPs preparations and at 500 nM for the pure PaPBP3 samples for an additional 20 min at 30 °C. All reactions were stopped with the addition of the Laemmli-loading buffer (Bio-Rad) containing fresh β-mercaptoethanol (Sigma). All reactions were then heated at 100°C for 3 min before migration on SDS-polyacrylamide discontinuous gel system (7.5% stacking and 10% separating). Control samples without Bocillin FL were also included to highlight autofluorescent proteins that are not PBPs.
To be able to visualize labeled PBPs after electrophoresis, gels were rinsed in water and fixed in a solution of 50% methanol and 7% acetic acid for 30 min. The fluorescent images of gels were obtained with the Typhoon FLA 9500 instrument (GE-Healthcare Bio-Sciences Inc., Baie-d’Urfé, QC, CA) using a 473 nm excitation wavelength. To obtain quantifiable data, the software Quantity One 1D analysis was used (version 4.6.6; Bio-Rad Laboratories, Richmond, CA). The volume (intensity × constant area) of each PBP was measured. […] All IC50 data were obtained from at least two independent PBP binding assays using two different sets of compound concentrations using a linear regression.

P. aeruginosa ATCC 27853 = assay: MIC, broth microdilution (CLSI); format: cell-based, Pseudomonas aeruginosa; conditions: for MIC in combination with PAβN: + 25 µg/mL PAβN
Procedure: (§1) All bacterial strains (see description and sources Table S1) were stored at −80 °C, and grown on tryptone soya agar (TSA) at 35 °C. The iron-deprived (ID)-MHBCA (cation-adjusted Muller-Hinton Broth, Becton Dickinson, Mississauga, ON, Canada) medium was prepared as reported by refs. [21],[50]. Briefly, MHBCA was treated with 10% Chelex® 50-100 mesh (Sigma) and stirred for 6 h at room temperature. The resin was removed by filtration. Divalent Ca^2+ (CaCl2), Mg^2+ (MgCl2), and Zn^2+(ZnSO4), were then added in the iron-depleted medium at 22, 12, and 1 μg/ml respectively. Finally, the pH was adjusted to 7.3, and the medium was sterilized with a 0.2-μm filter. Regular MHBCA (i.e., not treated with Chelex®) was used to compare the inhibitory activity of conjugates in iron-sufficient conditions.
(§2) Minimal inhibitory concentrations (MICs) were performed using a broth microdilution technique according to the Clinical and Laboratory Standards Institute (CLSI) guidelines. MICs were determined in MHBCA and in ID-MHBCA. To check the impact of β-lactamases, MICs in the presence of a β-lactamase inhibitor were also determined. The inhibitor was homogenized at 2X the final concentration and added to the bacterial inoculum just before distributing cells into the wells containing the drug dilutions. The final concentration of each inhibitor was 4 μg/mL for clavulanic acid (tested against K. pneumoniae) and 200 μg/mL for 3-aminophenylboronic acid (tested against P. aeruginosa and A. baumannii).

E. coli ΔtonB = assay: MIC, Keio mutant; format: cell-based, Escherichia coli
Procedure: as §1, §2

E. coli ΔentE = assay: MIC, Keio mutant; format: cell-based, Escherichia coli; conditions: Escherichia coli
Procedure: as §1, §2

E. coli ΔfecA = assay: MIC, Keio mutant; format: cell-based, Escherichia coli; conditions: Escherichia coli
Procedure: as §1, §2

E. coli ΔfepA = assay: MIC, Keio mutant; format: cell-based, Escherichia coli
Procedure: as §1, §2

E. coli MC4100 = assay: Bactericidal effect in the uptake assay (CFU counts); format: cell-based, Escherichia coli; conditions: for dCFU (Δlog10 CFU/mL, count with drug minus growth control): time 0 h, single replicates
From the text: The bactericidal effect determined at each time point was the difference in the concentration of bacteria in the assay tube with antibiotic and that measured in the growth control tube without drug (ΔLog10 CFU/mL). The normal distribution of the data was verified with the Shapiro–Wilk test and the statistical analysis was a comparison of repeated measures ANOVA (*p ≤ 0.05, **p ≤ 0.01, ***p ≤ 0.001) between each time point relatively to the 0-h time point.

[2] = ID-MHBCA (−), 0 µg/mL supplemental iron, read-out: MIC
[3] = MHBCA (+), no inhibitor, read-out: MIC
[4] = Pseudomonas aeruginosa, ATCC27853, ID-MHBCA (−), 0 µg/mL supplemental iron, read-out: MIC
[5] = Pseudomonas aeruginosa, ATCC27853, ID-MHBCA + 1 µg/mL supplemental iron, read-out: MIC
[6] = Pseudomonas aeruginosa, ATCC27853, ID-MHBCA, + 200 μg/mL APB, read-out: MIC with β-lactamase inhibitor (βI)
[7] = Pseudomonas aeruginosa, ATCC27853, MHBCA (+), no inhibitor, read-out: MIC
[8] = Pseudomonas aeruginosa, ATCC27853, MHBCA, + 200 μg/mL 3-aminophenylboronic acid (APB), read-out: MIC with β-lactamase inhibitor (βI)
[9] = 150 ng PaPBP3, 500 nM Bocillin FL, n = 3, read-out: IC50 PaPBP3 purified
[10] = Pseudomonas aeruginosa, ATCC27853, ID-MHBCA + 0.1 µg/mL supplemental iron, read-out: MIC
[11] = ID TRUE (ID-MHBCA), 200 μM drug

T1 sequence (G3XD46 53-579): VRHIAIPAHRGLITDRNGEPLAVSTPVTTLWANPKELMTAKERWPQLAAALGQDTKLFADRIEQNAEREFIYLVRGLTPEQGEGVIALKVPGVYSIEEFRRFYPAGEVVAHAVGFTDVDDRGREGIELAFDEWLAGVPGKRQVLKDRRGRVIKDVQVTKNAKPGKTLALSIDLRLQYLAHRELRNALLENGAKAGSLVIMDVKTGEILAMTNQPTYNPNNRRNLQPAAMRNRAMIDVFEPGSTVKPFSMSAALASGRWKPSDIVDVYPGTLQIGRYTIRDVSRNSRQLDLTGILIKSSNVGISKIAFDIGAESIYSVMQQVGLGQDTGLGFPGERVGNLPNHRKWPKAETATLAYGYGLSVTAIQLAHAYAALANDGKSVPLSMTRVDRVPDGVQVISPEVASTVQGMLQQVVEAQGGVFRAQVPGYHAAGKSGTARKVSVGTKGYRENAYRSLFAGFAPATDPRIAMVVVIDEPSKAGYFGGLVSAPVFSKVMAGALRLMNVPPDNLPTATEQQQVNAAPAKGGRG

SMILES	MIC (P. aeruginosa ATCC 27853; [2]) [µM]	MIC (P. aeruginosa ATCC 27853; [3]) [µM]	MIC in combination with PAβN (P. aeruginosa ATCC 27853; MHBCA) [µM]	MIC (P. aeruginosa ATCC 27853; [4]) [µM]	MIC (P. aeruginosa ATCC 27853; [5]) [µM]	MIC (P. aeruginosa ATCC 27853; [6]) [µM]	MIC (P. aeruginosa ATCC 27853; [7]) [µM]	MIC (P. aeruginosa ATCC 27853; [8]) [µM]	IC50 [1, 9] [nM]	MIC (E. coli ΔtonB; Escherichia coli) [µM]	MIC (E. coli ΔentE; ID-MHBCA) [µM]	MIC (E. coli ΔentE; MHBCA) [µM]	MIC (E. coli ΔfecA; ID-MHBCA) [µM]	MIC (E. coli ΔfecA; MHBCA) [µM]	MIC (E. coli ΔfepA; Escherichia coli, ID-MHBCA) [µM]	MIC (E. coli ΔfepA; Escherichia coli, MHBCA) [µM]	MIC ratio unconjugated β-lactam/conjugate (P. aeruginosa ATCC 27853; ID-MHBCA)	MIC ratio unconjugated β-lactam/conjugate (P. aeruginosa ATCC 27853; MHBCA)	dCFU (Δlog10 CFU/mL, count with drug minus growth control) (E. coli MC4100; ID FALSE (MHBCA), 200 μM drug)	dCFU (Δlog10 CFU/mL, count with drug minus growth control) (E. coli MC4100; [11])	other results
CC1(C)S[C@@H]2[C@H](NC(=O)[C@H](N)c3ccccc3)C(=O)N2[C@H]1C(=O)O [AMP, ampicillin, reference compound]	>200	>200	> 200	> 200	> 200	100	> 200	100													IC50 [1]: 74 ± 29 nM
CC1(C)SC2C(NC(=O)C(NC(=O)CN(CCCCNC(=O)c3cccc(O)c3O)C(=O)c3cccc(O)c3O)c3ccccc3)C(=O)N2C1C(=O)O (centres unmarked) [BAMP, bis-catechol (azotochelin)-ampicillin]			0.2	0.1 (≈ 0.075 µg/mL)	13	0.1	1.6 (≈ 1.2 µg/mL)	1.6	76 ± 31	50 (≈ 37.5 µg/mL)	0.05 (≈ 0.0375 µg/mL)	0.2 (≈ 0.15 µg/mL)	0.006 (≈ 0.0045 µg/mL)	≤ 0.003	0.024 (≈ 0.018 µg/mL)	0.1 to 0.4 (≈ 0.075 to 0.3 µg/mL)	>2048	>128			IC50 ratio βL/SID-βL, PaPBP3 purified [1]: 0.97; MIC (E. coli ΔtonB; ΔtonB, MHBCA): 50^c μM; MIC (E. coli ΔfepA; MHBCA): 0.2 µM (≈ 0.15 µg/mL); potentiation of activity (MIC decrease) by PAβN (P. aeruginosa ATCC 27853; 25 µg/mL PAβN): 8 fold; MIC ratio 0/1 (P. aeruginosa ATCC 27853; ID-MHBCA, 0 and 1 µg/mL supplemental iron (Table S2)): 128; MIC ratio 1/0 (P. aeruginosa ATCC 27853; ID-MHBCA, 1 versus 0 µg/mL supplemental iron (peer review file table)): 128; MIC (P. aeruginosa ATCC 27853; [10]): 0.8 µM
O=C(CN(CCCCNC(=O)c1cccc(O)c1O)C(=O)c1cccc(O)c1O)NC(C(=O)NC1C(=O)N2C(C(=O)O)=C(Cl)CCC12)c1ccccc1 (centres unmarked) [BLOR, bis-catechol (azotochelin)-loracarbef]	>200		> 200	> 200	> 200	0.8	13 (≈ 9.75 µg/mL)	6.3	380 ± 70	50 (≈ 37.5 µg/mL)	0.012 (≈ 0.009 µg/mL)	0.05 (≈ 0.0375 µg/mL)	≤ 0.003	≤ 0.003	0.012 (≈ 0.009 µg/mL)	0.1 to 0.4 (≈ 0.075 to 0.3 µg/mL)	No activity	>16	0.04788 and 0.3837 and 0.3931	-0.2509 and -0.1259 and 0.08749 and -0.2979 and -0.04259	IC50 ratio βL/SID-βL, PaPBP3 purified [1]: 23; MIC (E. coli ΔfepA; MHBCA): 0.1 µM (≈ 0.075 µg/mL); MIC (P. aeruginosa ATCC 27853; [10]): > 200 µM; bacterial inhibition, less than the control without antibiotic (E. coli MC4100; 4-h time point, MHBCA, 200 μM drug, inoculum 8.5 log10 CFU/mL): ~ 1.2 log10 CFU/mL; dCFU (E. coli MC4100; ID FALSE (MHBCA), time 8 h): -3.459; dCFU (E. coli MC4100; ID FALSE (MHBCA), time 10 h): -3.652; dCFU (E. coli MC4100; ID FALSE (MHBCA), time 24 h): -3.754
N[C@@H](C(=O)N[C@@H]1C(=O)N2C(C(=O)O)=C(Cl)CS[C@H]12)c1ccccc1 [CEF, cefaclor, reference compound]	>200	>200	> 200	> 200	> 200	> 200	> 200	> 200		13 (≈ 4.78 µg/mL)	6.3 (≈ 2.32 µg/mL)	6.3 (≈ 2.32 µg/mL)	6.3 (≈ 2.32 µg/mL)	6.3 (≈ 2.32 µg/mL)	25 (≈ 9.2 µg/mL)	13 (≈ 4.78 µg/mL)			0.07784 and -0.144 and -0.0313	-0.00308 and -0.2509 and -0.2737	
O=C(CCC(=O)N(CCCCNC(=O)c1cccc(O)c1O)CCCNC(=O)c1cccc(O)c1O)NCCCCCN(O)C(=O)CCCC(=O)NC(C(=O)NC1C(=O)N2C(C(=O)O)=C(Cl)CSC12)c1ccccc1 (centres unmarked) [MCEF, mixed ligand bis-catechol-mono-hydroxamate-cefaclor]	>200	>200	> 200	> 200	> 200	> 200	> 200	> 200		25 (≈ 27 µg/mL)	1.6 (≈ 1.73 µg/mL)	13 (≈ 14.1 µg/mL)	> 200	13 (≈ 14.1 µg/mL)	> 200	13 (≈ 14.1 µg/mL)	No activity	No activity	0.157 and -0.07022 and 0.01569 and -0.00717	0.0557 and -0.2291 and -0.2621	MIC (P. aeruginosa ATCC 27853; MHBCA (+), no inhibitor, listed as Mix-CEF, read-out: MIC): > 200 µM
